Measured values reported in patent publication US20250082600A1, “TREATING HAEMATOLOGICAL MALIGNANCIES BY MEANS OF SATRAPLATIN” (PHARMA& SCHWEIZ GMBH, priority 2022, published 2025).

Legend:
[1] = test system: MTAP deficient cell lines; test: Satraplatin IC50 plotted against MTAP status; format: cell-based, human
Protocol: (§1) Cell lines and reagents. All cell lines were cultured in appropriate media supplemented with 10-15% fetal bovine serum (Cat #FND500, ExCell Bio, China) at a temperature of 37° C., 5% CO2 and 95% humidity. Cell viability was measured using the CTG Luminescent Cell Viability Assay (Promega, Madison, WI, USA) by standard procedures as described below. Satraplatin was purchased from MedChemExpress (Shanghai, PRC) and cisplatin from Qilu Pharm (Jinan, Shandong, PRC), respectively. 1 mM stock solutions of both drugs were established for storage at −20° C. as previously described (5).
(§2) Determination of the half maximal inhibition concentration (IC50). Cells were harvested during the logarithmic growth period and cell numbers counted using Count-star (Inno-Alliance Biotech, USA). Cell density was adjusted to 4.44×10^4 cells/mL with the respective culture medium. […] The test plate was incubated for 72 h in the humidified incubator at 37° C. with 5% CO2, and then evaluated using CTG cell viability assay (Promega). […] Luminescence was recorded using EnVision Multi Label Reader (Perkin Elmer, Richmond, CA, USA).
(§3) Data Analysis. The data were analyzed and visualized using GraphPad Prism 5.0 (GraphPad Software, San Diego, CA, USA) and Think-Cell 11 (Think-Cell Software, Berlin, Germany). […] The absolute IC50 was calculated according to the dose-response curve generated by GraphPad Prism 5.0. […]

[2] = test system: CTCL cell line HUT78; test: CTG cell viability assay, HUT78; format: cell-based, human
Protocol: as §1, §2, §3

[3] = cited from earlier work
[4] = test system: hematological malignancies (n=44) cell lines; test: CTG cell viability assay, hematological malignancy cell lines; format: cell-based, human
Protocol: as §1
as §2, with “medium. Then, 90 μL cell suspensions were added in triplicate to a 96-well plate with the final cell density of 4×10^3 cells/well.” for “medium.”, “(Promega). For that purpose, plates were equilibrated at room temperature for approximately 30 min. Then, 50 μL CTG reagent was added to each well.” for “(Promega).”
(§4) Data Analysis. The data were analyzed and visualized using GraphPad Prism 5.0 (GraphPad Software, San Diego, CA, USA) and Think-Cell 11 (Think-Cell Software, Berlin, Germany). […] The formula for calculating the cell survival rate was: Cell survival (%) at Cx=(Cx−M)/(N−M)×100%, Cx being the luminescence signal of cells cultured with any concentration of the test compound, M being the luminescence signal of the blank control (with no cells) and N being the vehicle control with culture medium containing 0.25% (v/v) dimethyl sulfoxide. The absolute IC50 was calculated according to the dose-response curve generated by GraphPad Prism 5.0. […]

[5] = test system: DLBCL cell lines; test: CTG cell viability assay, DLBCL cell lines; format: cell-based, human; conditions: DLBCL and its respective cell lines
Protocol: as §1, §2, §3

[6] = test system: OCI-LY7 cells; test: CTG cell viability assay, OCI-LY7; format: cell-based, human
Protocol: as §1, §2, §3

[7] = test system: OCI-LY3 cell line; test: CTG cell viability assay, OCI-LY3; format: cell-based, human
Protocol: as §1, §2, §3

[8] = test system: hormone refractory prostate cancer patients (HRPC); conditions: monotherapy; cited from earlier work
[9] = test system: BCL2 expression; conditions: cited from earlier work
[10] = test system: lymphoma cell lines harboring gene copy number deletions in the 9p21 locus; test: Satraplatin sensitivity versus DNA copy number deletion; format: cell-based, human; conditions: MTAP/CDKN2A/CDKN2B/DMRTA1 deletions
Protocol: as §2, with “medium. Then, 90 μL cell suspensions were added in triplicate to a 96-well plate with the final cell density of 4×10^3 cells/well.” for “medium.”, “(Promega). For that purpose, plates were equilibrated at room temperature for approximately 30 min. Then, 50 μL CTG reagent was added to each well.” for “(Promega).”
Data Analysis. The data were analyzed and visualized using GraphPad Prism 5.0 (GraphPad Software, San Diego, CA, USA) and Think-Cell 11 (Think-Cell Software, Berlin, Germany). […] The formula for calculating the cell survival rate was: Cell survival (%) at Cx=(Cx−M)/(N−M)×100%, Cx being the luminescence signal of cells cultured with any concentration of the test compound, M being the luminescence signal of the blank control (with no cells) and N being the vehicle control with culture medium containing 0.25% (v/v) dimethyl sulfoxide. […]

[11] = test system: 66 cancer cell lines; test: CTG cell viability assay, 66 cancer cell lines (AUC); format: cell-based, human; conditions: for activity (AUC) in hematological malignancies compared to solid organ cancers: ANOVA p-value=2.3e-08
Protocol: as §1
as §2, with “medium. Then, 90 μL cell suspensions were added in triplicate to a 96-well plate with the final cell density of 4×10^3 cells/well.” for “medium.”, “(Promega). For that purpose, plates were equilibrated at room temperature for approximately 30 min. Then, 50 μL CTG reagent was added to each well.” for “(Promega).”
as §4

CC(=O)[O][Pt]([NH2])([Cl])([Cl])([NH]C1CCCCC1)[O]C(C)=O [satraplatin, bis (acetato) ammine dichloro (cyclohexylamine) platinum (IV)]
activity in MTAP deleted hematopoietic cell lines [1]: high activity | IC50 [2]: low-micromolar | access to the cerebrospinal fluid [3]: access the cerebrospinal fluid at sufficient dose levels | activity grouped by histology ([4]; DLBCL, T-cell lymphoma, MCL, MM and Burkitt lymphoma cell lines): high activity | IC50 values ([4]; group of hematologic malignancies, 72 h, CTG): low to sub micromolar levels | activity compared with standard cisplatin ([4]; within the group of hematologic malignancies, p-value=0.009, FIG. 2): significantly more active | IC50 values [5]: low micromolar or even sub-molar | killing compared to cisplatin [6]: significantly superior | cell killing [7]: killed very efficiently | activity compared with cisplatin ([7]; p-value of 0.0006): significantly more active than cisplatin | objective response rate [8]: up to 31% | effectiveness in contrast to oxaliplatin [9]: significantly more effective | reduction of BCL2 expression ([9]; independently of P53 mutational status): up to 13 fold | activity on cell lines with 9p21 copy number deletions [10]: more active | activity (AUC) in hematological malignancies compared to solid organ cancers [11]: significant higher activity in haematopoietic & lymphoid malignancies | activity (AUC) in hematological malignancies compared to solid organ cancers ([11]; listed as Satraplatin): significantly more active in hematological malignancies | median AUC value across all tested cell lines ([11]; area under dose-response curve, 72 h, CTG, FIG. 1): 2.35
